Test results as given in patent US20240294541A1, “COMPOUNDS CONSTITUTING C20-MODIFIED SALINOMYCIN DERIVATIVES, A METHOD FOR OBTAINING THE SAME, A COMPOSITION CONTAINING THE SAME AND A USE OF SAID COMPOUNDS” (FILECLO SPOLKA Z OGRANICZONA ODPOWIEDZIALNOSCIA, priority 2021, published 2024).

Legend:
Type in all cases: cell-based
[1] = test system: BALB/3T3 (normal mouse fibroblasts); experiment: In vitro cytotoxicity, SRB assay, normal BALB/3T3 fibroblasts; settings: Table 5; BALB/3T3 normal mouse fibroblasts; read-out: IC50 (nM) BALB3T3 normal cells
[2] = test system: MV-4-11 (human biphenotypic leukaemia); experiment: In vitro cytotoxicity, MTT assay, MV-4-11; settings: for IC50: Homo sapiens, MV4-11, read-out: IC50 (nM) MV4-11
[3] = test system: A2780Cis (cisplatin-resistant human ovarian cancer); experiment: In vitro cytotoxicity, SRB assay, A2780Cis; settings: for IC50: Homo sapiens, A2780cis, read-out: IC50 (nM) A2780Cis
[4] = test system: PLC/PRF/5 (human liver cancer); experiment: cells; settings: Table 4; PLC/PRF/5 human liver cancer cells; read-out: IC50 (nM) PLC/PRF/5
Hs294T (human melanoma) = experiment: cells; settings: Hs 294T; Table 4; Hs294T human melanoma cells; read-out: IC50 (nM) Hs294T
[5] = test system: MIA PaCa-2 (human pancreatic cancer); experiment: cells; settings: Table 4; MIA PaCa-2 human pancreatic cancer cells; read-out: IC50 (nM) MIA PaCa-2

SMILES	IC50 [1] [nM]	SI MV4-11 [2]	IC50 [2] [nM]	SI A2780Cis [3]	IC50 [3] [nM]	IC50 [4] [nM]	IC50 (Hs294T (human melanoma)) [nM]	IC50 [5] [nM]
CC[C@@H](C(=O)[C@@H](C)[C@@H](O)[C@H](C)[C@@H]1O[C@@H]([C@@H](CC)C(=O)O)CC[C@@H]1C)[C@H]1O[C@]2(C=C[C@@H](NC(=O)OCCCN(C)C)[C@]3(CC[C@@](C)([C@H]4CC[C@](O)(CC)[C@H](C)O4)O3)O2)[C@H](C)C[C@@H]1C [FLC-00498-1•Na]	5010	3.2	1560	6.6	758	–	–	–
CC[C@@H](C(=O)[C@@H](C)[C@@H](O)[C@H](C)[C@@H]1O[C@@H]([C@@H](CC)C(=O)O)CC[C@@H]1C)[C@H]1O[C@]2(C=C[C@@H](NC(=O)C(Cl)Cl)[C@]3(CC[C@@](C)([C@H]4CC[C@](O)(CC)[C@H](C)O4)O3)O2)[C@H](C)C[C@@H]1C [FLC-00493-1•Na]	57.7	10.6	5.43	26.9	2.14	–	–	–
CC[C@@H](C(=O)[C@@H](C)[C@@H](O)[C@H](C)[C@@H]1O[C@@H]([C@@H](CC)C(=O)O)CC[C@@H]1C)[C@H]1O[C@]2(C=C[C@@H](NC(=O)OCc3cc(Cl)cc(Cl)c3)[C@]3(CC[C@@](C)([C@H]4CC[C@](O)(CC)[C@H](C)O4)O3)O2)[C@H](C)C[C@@H]1C [FLC-00485-1•Na]	106	5.3	20	23.0	4.62	–	–	–
CC[C@@H](C(=O)[C@@H](C)[C@@H](O)[C@H](C)[C@@H]1O[C@@H]([C@@H](CC)C(=O)O)CC[C@@H]1C)[C@H]1O[C@]2(C=C[C@@H](NC(=O)OCCN3CCOCC3)[C@]3(CC[C@@](C)([C@H]4CC[C@](O)(CC)[C@H](C)O4)O3)O2)[C@H](C)C[C@@H]1C [FLC-00570-1•Na]	636	14.6	43.7	21.2	30	–	–	–
CC[C@@H](C(=O)[C@@H](C)[C@@H](O)[C@H](C)[C@@H]1O[C@@H]([C@@H](CC)C(=O)O)CC[C@@H]1C)[C@H]1O[C@]2(C=C[C@@H](NC(=O)OCc3ccccc3Cl)[C@]3(CC[C@@](C)([C@H]4CC[C@](O)(CC)[C@H](C)O4)O3)O2)[C@H](C)C[C@@H]1C [FLC-00484-1•Na]	23.9	40.7	0.59	95.4	0.25	–	–	–
CC[C@@H](C(=O)[C@@H](C)[C@@H](O)[C@H](C)[C@@H]1O[C@@H]([C@@H](CC)C(=O)O)CC[C@@H]1C)[C@H]1O[C@]2(C=C[C@@H](NC(=O)OC3CCN(C)CC3)[C@]3(CC[C@@](C)([C@H]4CC[C@](O)(CC)[C@H](C)O4)O3)O2)[C@H](C)C[C@@H]1C [FLC-00559-1•Na]	5340	17.8	300	16.2	330	–	–	–
CC[C@@H](C(=O)[C@@H](C)[C@@H](O)[C@H](C)[C@@H]1O[C@@H]([C@@H](CC)C(=O)O)CC[C@@H]1C)[C@H]1O[C@]2(C=C[C@@H](NC(=O)N3CCN(CC)C(=O)C3=O)[C@]3(CC[C@@](C)([C@H]4CC[C@](O)(CC)[C@H](C)O4)O3)O2)[C@H](C)C[C@@H]1C [FLC-00518-1•Na]	–	–	3490	–	3220	–	–	–
CC[C@@H](C(=O)[C@@H](C)[C@@H](O)[C@H](C)[C@@H]1O[C@@H]([C@@H](CC)C(=O)O)CC[C@@H]1C)[C@H]1O[C@]2(C=C[C@@H](NC(=O)N3CCS(=O)(=O)CC3)[C@]3(CC[C@@](C)([C@H]4CC[C@](O)(CC)[C@H](C)O4)O3)O2)[C@H](C)C[C@@H]1C [FLC-00560-1•Na]	5330	15.7	339	18.8	283	–	–	–
CC[C@@H](C(=O)[C@@H](C)[C@@H](O)[C@H](C)[C@@H]1O[C@@H]([C@@H](CC)C(=O)O)CC[C@@H]1C)[C@H]1O[C@]2(C=C[C@@H](NC(=O)c3cc(OC)c(OC)c(OC)c3)[C@]3(CC[C@@](C)([C@H]4CC[C@](O)(CC)[C@H](C)O4)O3)O2)[C@H](C)C[C@@H]1C [FLC-00573-1•Na]	1880	–	158	–	–	–	–	–
CC[C@@H](C(=O)[C@@H](C)[C@@H](O)[C@H](C)[C@@H]1O[C@@H]([C@@H](CC)C(=O)O)CC[C@@H]1C)[C@H]1O[C@]2(C=C[C@@H](NC(=O)C(=O)NCCN)[C@]3(CC[C@@](C)([C@H]4CC[C@](O)(CC)[C@H](C)O4)O3)O2)[C@H](C)C[C@@H]1C [FLC-00456-1•Na]	–	–	3430	–	2850	7290	8690	–
CC[C@@H](C(=O)[C@@H](C)[C@@H](O)[C@H](C)[C@@H]1O[C@@H]([C@@H](CC)C(=O)O)CC[C@@H]1C)[C@H]1O[C@]2(C=C[C@@H](NC(=O)C(=O)NCCO)[C@]3(CC[C@@](C)([C@H]4CC[C@](O)(CC)[C@H](C)O4)O3)O2)[C@H](C)C[C@@H]1C [FLC-00438-1•Na]	–	–	2500	–	2900	7280	–	6460
CCCCCCCCCCCCCCCCOC(=O)N[C@@H]1C=C[C@]2(O[C@H]([C@@H](CC)C(=O)[C@@H](C)[C@@H](O)[C@H](C)[C@@H]3O[C@@H]([C@@H](CC)C(=O)O)CC[C@@H]3C)[C@@H](C)C[C@H]2C)O[C@@]12CC[C@@](C)([C@H]1CC[C@](O)(CC)[C@H](C)O1)O2 [FLC-00410-1•Na]	–	–	3740	–	7700	–	–	–
CC[C@@H](C(=O)[C@@H](C)[C@@H](O)[C@H](C)[C@@H]1O[C@@H]([C@@H](CC)C(=O)O)CC[C@@H]1C)[C@H]1O[C@]2(C=C[C@@H](NC(=O)C(=O)NCCN3CCOCC3)[C@]3(CC[C@@](C)([C@H]4CC[C@](O)(CC)[C@H](C)O4)O3)O2)[C@H](C)C[C@@H]1C [FLC-00465-1•Na]	–	–	3170	–	3070	–	–	–
CC[C@@H](C(=O)[C@@H](C)[C@@H](O)[C@H](C)[C@@H]1O[C@@H]([C@@H](CC)C(=O)O)CC[C@@H]1C)[C@H]1O[C@]2(C=C[C@@H](NC(=O)NCCCN(C)C)[C@]3(CC[C@@](C)([C@H]4CC[C@](O)(CC)[C@H](C)O4)O3)O2)[C@H](C)C[C@@H]1C [FLC-00562-1•Na]	–	–	3070	–	3010	–	–	–
CC[C@@H](C(=O)[C@@H](C)[C@@H](O)[C@H](C)[C@@H]1O[C@@H]([C@@H](CC)C(=O)O)CC[C@@H]1C)[C@H]1O[C@]2(C=C[C@@H](NC(=O)N(C)CCCN(C)C)[C@]3(CC[C@@](C)([C@H]4CC[C@](O)(CC)[C@H](C)O4)O3)O2)[C@H](C)C[C@@H]1C [FLC-00563-1•Na]	–	–	3250	–	3120	–	–	–
CC[C@@H](C(=O)[C@@H](C)[C@@H](O)[C@H](C)[C@@H]1O[C@@H]([C@@H](CC)C(=O)O)CC[C@@H]1C)[C@H]1O[C@]2(C=C[C@@H](NC(=O)C(=O)NCCN(C)C)[C@]3(CC[C@@](C)([C@H]4CC[C@](O)(CC)[C@H](C)O4)O3)O2)[C@H](C)C[C@@H]1C [FLC-00471-1•Na]	–	–	4730	–	4290	–	–	–
CC[C@@H](C(=O)[C@@H](C)[C@@H](O)[C@H](C)[C@@H]1O[C@@H]([C@@H](CC)C(=O)O)CC[C@@H]1C)[C@H]1O[C@]2(C=C[C@@H](NC(=O)C(=O)NCCCn3ccnc3)[C@]3(CC[C@@](C)([C@H]4CC[C@](O)(CC)[C@H](C)O4)O3)O2)[C@H](C)C[C@@H]1C [FLC-00392-1•Na]	–	–	1960	–	3750	8330	–	–
